Assays:
[1] = test system: valproic acid (VPA)-induced mouse model of autism; assay: VPA-induced mouse model of autism (three-chamber, male-female interaction, marble burying, grooming); type: in vivo; conditions: VPA mice, 0.2 mg/kg i.p. seven days
Excerpt: Right panel, quantification of the social novelty index in mice treated with vehicle (WT, n=15, VPA, n=10) or 3.17 (WT, n=9, VPA, n=12); two-way ANOVA, Tukey's post hoc test, *P<0.05, **P<0.01. (b) Quantification of the interaction time in mice treated with vehicle (WT, n=15, VPA, n=10) or 3.17 (WT, n=10, VPA, n=11); two-way ANOVA, Tukey's post hoc test, **P<0.01. (c) Quantification of the number of marbles buried by mice treated with vehicle (WT, n=17, VPA, n=17) or 3.17 (WT, n=13, VPA, n=13); two-way ANOVA, Tukey's post hoc test, *P<0.05, **P<0.01. (d) Quantification of grooming time for mice treated with vehicle (WT, n=20, VPA, n=17) or 3.17 (WT, n=13, VPA, n=13); two-way ANOVA on Ranks, Tukey's post hoc test, *P<0.05, **P<0.01.
In vivo assessment of the efficacy of the selected NKCC1 inhibitor in the valproic acid (VPA)-induced mouse model of autism, to assess its ability to rescue altered social interaction. The VPA model was obtained by treating pregnant C57bl/6j dams at 12.5 days of pregnancy with 600 mg/kg (i.p.) of VPA dissolved in PBS. […] As control, the offspring of C57bl/6j dams treated at 12.5 with PBS was used. To assess the efficacy of the compound to restore social deficits, juvenile male offspring of both the VPA- and PBS-treated dams were treated (i.p injection) with 0.2 mg/kg of compound 3.17 dissolved in PBS or 2% DMSO dissolved in PBS as control for seven days. Then, mice were tested for their social ability and for repetitive behaviors in different tests. The social ability was tested in the three-chamber test (Silverman et al., 2010). In the three-chamber test, mice are singularly placed in a three-chamber box with openings between the chambers. After ten minutes of free exploration, a never-before-met intruder is placed under one pencil cup in one chamber and an empty pencil cup was placed in the other chamber. […] The social novelty index is measured as follows: [(time spent with the new intruder−time spent with the old intruder)/(time spent with the new intruder+time spent with the old intruder) %].
The sociability during male-female interaction was then assessed (Drapeau et al., 2018). In this test the tested mouse, after 5 minutes of habituation, is evaluated for its approach to a female intruder mouse that is placed for 5 minutes in the same cage. The time spent interacting is calculated as a measure of male-female social interaction. […] Finally, repetitive behaviors were evaluated in two different tests. […] The repetitive behavior is evaluated as the number of marbles buried in the litter. […] During the test, the mouse is placed in a cylindrical support and after 10 minutes of habituation, the repetitive grooming activity is measured during 5 minutes.

[2] = Phase I metabolism in liver microsomes; type: in vitro ADME; conditions: read-out: t½ in liver microsomes
Protocol: FIG. 3: Assessment of drug-likeness of a selected compound, compound 3.17. a) Chemicophysical properties of bumetanide and compound 3.17 by LC-MS analysis. b) Comparison between urinary volume of WT mice (C57Bl/6N) two hours after treatment with bumetanide (0.2 mg/kg) and compound 3.17 (0.2 mg/kg). c) Assessment of urinary volume of Ts65Dn mouse model of Down syndrome and WT littermates two hours after treatment with compound 3.17 (0.2 mg/kg). Number in parenthesis: number of analyzed animals. Data represents mean±sem, and they are presented as % of the respective vehicle.
The selected NKCC1 inhibitor compound 3.17 has been evaluated for solubility in aqueous buffers, and stability in plasma and phase I metabolism in vitro (FIG. 3a).

CN(C)S(=O)(=O)c1cc(C(=O)O)ccc1NCCCCCCCC(F)(F)F [Compound 3.17, 3-(dimethylsulfamoyl)-4-(8,8,8-trifluorooctylamino) benzoic acid]
male-female interaction [1]: completely restored
repetitive behaviors (marbles buried, grooming time) [1]: completely restored
sociability index ([1]; three-chamber test): completely restored
social novelty index ([1]; three-chamber test): completely restored
half-life [2]: > 1 h

— patent US20220184008A1, “MODULATORS OF INTRACELLULAR CHLORIDE CONCENTRATION” (FONDAZIONE ISTITUTO ITALIANO DI TECNOLOGIA, priority 2019, published 2022)
